Patent publication US6740759B1, “Method for producing 2-alkyl-4-isothiazoline-3-one” (Chemicrea, Inc., priority 1999, dated 2004)

Assay: mutagenicity (Ames) testing of the crystals obtained
Assay type: cell-based
Parameters: key: A “+” signifies a positive adverse effect on the body; a “−” denotes no adverse effect
Settings: crystals obtained in the example
Description: The numbers in the table enclosed by parentheses in the column of solvents used in the reaction denote the molar fraction of the solubility of hydrogen chloride at normal temperature/pressure. The purity of the crystals obtained in Working Examples 1 to 7 and in the Comparative Example was analyzed by high-performance liquid chromatography and submitted to mutagenicity (Ames) testing. A “+” signifies a positive adverse effect on the body while a “−” denotes no adverse effect.

SMILES	Ames test
Cn1sccc1=O [Working Example 3, 2-methyl-4-isothiazoline-3-one]	−
CCCCCCCCn1sccc1=O [Working Example 4, 2-n-octyl-4-isothiazoline-3-one]	−
O=c1ccsn1Cc1ccccc1 [Working Example 7, 2-benzyl-4-isothiazoline-3-one]	−
